Tested on: CRE-dependent transcription (PKA/ERK/CREB intracellular signaling)
Test: luciferase reporter assay of CRE-dependent gene transcription activity in plasmid-transfected PC12 cells
Type: cell-based, rat
Experimental: In order to evaluate the gene transcription activity of each sample, the luciferase reporter assay was performed.
The luciferase assay is used to quantitatively analyze the transcription activity of a test material. In order to activate the transcription, various control sequences present in an upstream promoter of a gene are required.
In this embodiment, a plasmid was used in which a CRE sequence which was a control sequence activated by the PKA/ERK/CREB intracellular signaling and was present in an upstream promoter of a memory, and in which learning-related gene and a gene of a luciferase functioning as a luminescent enzyme were connected to each other.
When the test material activates the CRE-dependent transcription, the luciferase gene present at a downstream side is expressed, and the expression thereof is increased, so that a luciferase protein is increased.
PC12 cells (rat adrenal medulla pheochromocytoma derived cell line) were seeded in 96-well culture dish at a seeding density of 4.0×10^4 cells/well. Subsequently, the plasmid was transfected in the PC12 cell, and the cultivation was performed in a medium to which each of the samples was dripped. As the medium, an α-modified Dulbecco's modified Eagle's medium supplemented with 1% serum (DMEM) was used. […]

COc1ccc(-c2cc(=O)c3c(OC)c(OC)c(OC)c(OC)c3o2)cc1OC [Nobiletin, nobiletin]
concentration at which nobiletin has an enhancing action (in combination with Anredera cordifolia, suggested from ponkan's peel extract assumed to contain 1% nobiletin): ≤ 2 µg/mL
concentration at which nobiletin expresses the luciferase activity (nobiletin solution alone): 2 µg/mL

Source: patent US20200323934A1, “PHARMACEUTICAL COMPOSITION AND FOOD” (Sankyo Holdings Co., Ltd., priority 2016, published 2020)
